# Laboratory results taken from the supplement of paper PMC7840683.
# Counter-ions that a name gives are not always drawn. ± gives the standard deviation of the averaged measurements.
# System: HepaRG
# Assay: LDH release cytotoxicity, % of total lysis control; higher = more cytotoxic
# Settings: 48 h
# Method in brief: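 Percent cytotoxicity was scaled between on-plate vehicle and total lysis controls, then averaged over duplicate wells. The cells were single-lot HepaRG on collagen I-coated 96-well plates, exposed for 48 h to eight-point half-log test chemical series topping at 100 µM in serum-free induction medium with 0.5% DMSO. Total lysis wells got 0.1% Triton X, and LDH in 50 µL spent medium was read as resorufin fluorescence (CytoTox-ONE, Tecan Safire).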
Structure (SMILES),LDH release cytotoxicity (0.03162 µM),LDH release cytotoxicity (0.1 µM),LDH release cytotoxicity (0.3162278 µM),LDH release cytotoxicity (1 µM),LDH release cytotoxicity (3.16228 µM),LDH release cytotoxicity (10 µM),LDH release cytotoxicity (31.6228 µM),LDH release cytotoxicity (100 µM)
CNC(=O)CSP(=S)(OC)OC [Dimethoate],0.0142 ± 0.81%,0.0233 ± 0.62%,-0.779 ± 0.49%,-1.24 ± 0.51%,-0.679 ± 0.19%,-0.364 ± 0.63%,0.327 ± 0.06%,0.574 ± 0.89%
COc1ccc(C(=CC(=O)N2CCOCC2)c2ccc(Cl)cc2)cc1OC [Dimethomorph],-0.689 ± 0.5%,-1.52 ± 0.24%,-1.7 ± 0.055%,-1.1 ± 0.47%,-0.768 ± 0.71%,-0.565 ± 0.54%,-0.618 ± 0.33%,1.09 ± 0.43%
CC(=O)OC1CC(C)OC(C)O1 (stereo not drawn) [Dimethoxane],-0.261 ± 1.2%,-0.746 ± 0.9%,-1.64 ± 0.38%,-1.54 ± 0.41%,-1.77 ± 0.27%,-1.72 ± 0.61%,-1.51 ± 0.86%,4.58 ± 1.8%
COC(=O)CCCCC(=O)OC [Dimethyl adipate],0.892 ± 0.4%,-1.11 ± 0.066%,-1.36 ± 0.49%,-1.52 ± 0.75%,-1.398 ± 0.013%,-1.08 ± 0.68%,-0.702 ± 0.6%,0.485 ± 0.56%
COC(=O)CCCC(=O)OC [Dimethyl glutarate],-0.9 ± 1.2%,-1.35 ± 0.52%,-1.16 ± 1.5%,-1.42 ± 0.98%,-1.03 ± 1.1%,-1.13 ± 0.84%,-1.36 ± 0.88%,3.2 ± 2.1%
COC(=O)CC(=O)OC [Dimethyl malonate],-0.603 ± 0.72%,-0.89 ± 0.63%,-0.395 ± 0.94%,-0.704 ± 0.96%,-0.831 ± 0.86%,-0.0631 ± 0.27%,0.8 ± 0.35%,1.4 ± 0.021%
COC(=O)c1ccccc1C(=O)OC [Dimethyl phthalate],-0.705 ± 0.12%,-1.99 ± 0.097%,-1.58 ± 0.53%,-2.6 ± 0.29%,-1.11 ± 0.29%,-0.678 ± 0.68%,-0.11 ± 0.75%,1.18 ± 0.58%
COC(=O)CCC(=O)OC [Dimethyl succinate],-1.91 ± 0.15%,-0.897 ± 0.57%,-1.76 ± 0.078%,-2.16 ± 0.17%,-1.84 ± 0.28%,-1.56 ± 0.26%,-1.39 ± 0.24%,0.319 ± 0.33%
COS(=O)(=O)OC [Dimethyl sulfate],-0.536 ± 0.23%,-0.931 ± 0.64%,-1.52 ± 1%,-1.6 ± 0.65%,-1.18 ± 0.15%,-0.291 ± 0.98%,-1.17 ± 1.2%,3.53 ± 0.11%
COC(=O)c1ccc(C(=O)OC)cc1 [Dimethyl terephthalate],0.0234 ± 1%,-0.391 ± 1.6%,-1.12 ± 0.61%,-0.654 ± 0.052%,-0.533 ± 0.33%,0.0948 ± 0.34%,0.365 ± 0.88%,2.87 ± 0.72%
CN(C)CCO [Dimethylaminoethanol],0.182 ± 0.62%,-0.302 ± 1.6%,-0.0529 ± 0.18%,-1.37 ± 0.049%,-1.09 ± 1.8%,-1.02 ± 0.62%,-0.601 ± 0.24%,1.07 ± 0.52%
CN(C)C(=O)Cl [Dimethylcarbamoyl chloride],-1.3 ± 0.049%,-0.716 ± 0.62%,-0.579 ± 0.073%,-0.789 ± 0.59%,-0.264 ± 0.42%,-0.4 ± 0.096%,-0.611 ± 0.2%,0.647 ± 0.56%
CC(C)(C)C(O)C(=Cc1ccc(Cl)cc1Cl)n1cncn1 (stereo not drawn) [Diniconazole],-0.57 ± 1.1%,-1.77 ± 1.1%,-0.96 ± 0.019%,-0.38 ± 0.69%,0.433 ± 0.38%,-0.346 ± 1.4%,0.723 ± 1.1%,1.41 ± 0.97%
CCC(C)c1cc([N+](=O)[O-])cc([N+](=O)[O-])c1O (stereo not drawn) [Dinoseb],-1.28 ± 0.054%,0.378 ± 0.78%,-1.3 ± 0.076%,-1.58 ± 0.37%,-0.982 ± 1%,-0.113 ± 0.038%,0.81 ± 0.59%,2.87 ± 1.4%
CCCCCCCCOC(=O)CCCCCCCCC(=O)OCCCCCCCC [Dioctyl sebacate],-0.979 ± 0.56%,-1.87 ± 0.14%,-1.9 ± 0.45%,-1.13 ± 0.44%,-1.59 ± 0.11%,-0.887 ± 0.82%,5.14 ± 1.2%,68.74 ± 0.047%
CCCCCOC(=O)c1ccccc1C(=O)OCCCCC [Dipentyl phthalate],-0.338 ± 1.3%,-1.03 ± 0.79%,-1.76 ± 0.55%,-0.0572 ± 0.49%,10.4 ± 0.42%,55.1 ± 3.3%,47.6 ± 0.78%,43.3 ± 0.68%
